# Where two headings read alike, the source gives them in different places.
# Test system: β-amyloid peptide formation in human H4 cells
# Assay: Inhibition of β-amyloid peptide (Aβ) formation in H4 cells overexpressing HPLAP-APP fusion protein
# Format: cell-based
# Procedure: γ-Secretase inhibitors were also evaluated using in vitro assays based on the inhibition of Aβ formation in cultured cells. Cultured human cell lines, such as HEK293 and H4 cells, which express APP and γ-secretase activity or transfected derivative cell lines that overexpress wild-type APP, mutant APP, or APP fusion proteins will secrete Aβ peptides into the culture media that can be quantified as previously outlined (Dovey, H. et al., J. Neurochem. 2001, 76, 173). The incubation of these cultured cells with γ-secretase inhibitors decreases the production of Aβ peptides. For instance, H4 cells stably transfected to overexpress the HPLAP-APP fusion protein described above were grown as above, detached, and adjusted to 2×10^5 cells/ml. 100 μl of the resulting suspension was then added to each well of a 96-well plate. After 4 hrs, the media was removed and replaced with 100 μl serum-free media containing various dilutions of the test compound. Plates were then incubated for 18 hrs at 37° C. and a 100 μl aliquot of the tissue culture supernatant was removed for determination of Aβ levels using time-resolved fluorescence of the homogenous sample as outlined above. The extent of Aβ inhibition was used to calculate the IC50 value for the test compound.
# Representative compounds were evaluated in the above assay and were determined to inhibit Aβ formation.
# [1] = class symbol, read-out: Binding affinity (IC50 in nM), activity class
# [2] = number in parentheses, read-out: Binding affinity (IC50 in nM)
Structure (SMILES),IC50 [1],IC50 [2]
"NC(=O)C(c1cc(F)cc(F)c1)N(Cc1ccc(C(=O)N2CCC2)cc1)S(=O)(=O)c1ccc(Cl)cc1 (stereo not drawn) [Example 5, α-[(4-Chlorobenzenesulfonyl)(4-azetidinylcarbonylphenylmethyl)amino]-3,5-difluorobenzene-acetamide]",0.25 to 50 nM,–
"CCN1CCc2cc(CN(C(C(N)=O)c3cc(F)cc(F)c3)S(=O)(=O)c3ccc(Cl)cc3)ccc2C1=O (stereo not drawn) [Example 9, α-[(4-Chlorobenzenesulfonyl)(1-oxo-2-ethyl-1,2,3,4-tetrahydroisoquinolin-6-ylmethyl)amino]-3,5-difluorobenzeneacetamide]",0.25 to 50 nM,–
"NC(=O)C(c1cc(F)cc(F)c1)N(Cc1ccc(-n2cncn2)cc1)S(=O)(=O)c1ccc(Cl)cc1 (stereo not drawn) [Example 11, α-[(4-Chlorobenzenesulfonyl)(4-(1,2,4-triazolyl)-phenylmethyl)amino]-3,5-difluorobenzene-acetamide]",0.25 to 50 nM,–
"NC(=O)C(c1cc(F)cc(F)c1)N(Cc1ccc(-n2cccn2)cc1)S(=O)(=O)c1ccc(Cl)cc1 (stereo not drawn) [Example 12, α-[(4-Chlorobenzenesulfonyl)(4-pyrazolylphenylmethyl)amino]-3,5-difluorobenzene-acetamide]",0.25 to 50 nM,9.15 nM
"NC(=O)C(c1cc(F)cc(F)c1)N(Cc1ccc(F)cc1)S(=O)(=O)c1ccc(Cl)cc1 (stereo not drawn) [Example 14, α-[(4-Chlorobenzenesulfonyl)(4-fluorophenylmethyl)amino]-3,5-difluorobenzene-acetamide]",0.25 to 50 nM,–
"N#Cc1ccc(CN(C(C(N)=O)c2cc(F)cc(F)c2)S(=O)(=O)c2ccc(Cl)cc2)cc1 (stereo not drawn) [Example 16, α-[(4-Chlorobenzenesulfonyl)(4-cyanophenylmethyl)amino]-3,5-difluorobenzene-acetamide]",0.25 to 50 nM,12.4 nM
Cc1nc(-c2ccc(CN(C(C(N)=O)c3cc(F)cc(F)c3)S(=O)(=O)c3ccc(Cl)cc3)cc2)no1 (stereo not drawn) [Example 18],0.25 to 50 nM,–
NC(=O)C(c1cc(F)cc(F)c1)N(Cc1ccc(-c2ncon2)cc1)S(=O)(=O)c1ccc(Cl)cc1 (stereo not drawn) [Example 19],0.25 to 50 nM,–

# The next lines start with the values.
IC50 [1],IC50 [2],Structure (SMILES)
0.25 to 50 nM,–,"CC(C)(C)OC(=O)c1ccc(CN(C(C(N)=O)c2cc(F)cc(F)c2)S(=O)(=O)c2ccc(Cl)cc2)cc1 (stereo not drawn) [Example 1, α-[(4-Chlorobenzenesulfonyl)((4-t-butyloxycarbonylphenyl)methyl)amino]-3,5-difluorobenzeneacetamide]"
50 to 500 nM,116 nM,"NC(=O)C(c1cc(F)cc(F)c1)N(Cc1ccc(C(=O)O)cc1)S(=O)(=O)c1ccc(Cl)cc1 (stereo not drawn) [Example 2, α-[(4-Chlorobenzenesulfonyl)((4-carboxyphenyl)methyl)amino]-3,5-difluorobenzene-acetamide]"
0.25 to 50 nM,1.28 nM,"CCNC(=O)c1ccc(CN(C(C(N)=O)c2cc(F)cc(F)c2)S(=O)(=O)c2ccc(Cl)cc2)cc1 (stereo not drawn) [Example 3, α-[(4-Chlorobenzenesulfonyl)((4-ethylaminocarbonylphenyl)methyl)amino]-3,5-difluorobenzeneacetamide]"
0.25 to 50 nM,–,"CC(C)(C)NC(=O)c1ccc(CN(C(C(N)=O)c2cc(F)cc(F)c2)S(=O)(=O)c2ccc(Cl)cc2)cc1 (stereo not drawn) [Example 4, α-[(4-Chlorobenzenesulfonyl)(4-t-butylaminocarbonylphenylmethyl)amino]-3,5-difluorobenzeneacetamide]"
0.25 to 50 nM,–,"CNC(=O)c1ccc(CN(C(C(N)=O)c2cc(F)cc(F)c2)S(=O)(=O)c2ccc(Cl)cc2)cc1 (stereo not drawn) [Example 6, α-[(4-Chlorobenzenesulfonyl)(4-methylaminocarbonylphenylmethyl)amino]-3,5-difluorobenzene-acetamide]"
0.25 to 50 nM,0.93 nM,NC(=O)C(c1cc(F)cc(F)c1)N(Cc1ccc(C(=O)NC2CCC2)cc1)S(=O)(=O)c1ccc(Cl)cc1 (stereo not drawn) [Example 8]
50 to 500 nM,127 nM,"CCNC(=O)c1ccc(CN(C(C(N)=O)c2ccccc2C)S(=O)(=O)c2ccc(Cl)cc2)cc1 (stereo not drawn) [Example 31, α-[(4-Chlorobenzenesulfonyl)((4-ethylaminocarbonylphenyl)methyl)amino]-2-methylbenzene-acetamide]"
